In PMC8954540, “A New Class of PSMA-617-Based Hybrid Molecules for Preoperative Imaging and Intraoperative Fluorescence Navigation of Prostate Cancer” (Pharmaceuticals, 2022):
Blank lines part the entries; values can stand above or below the compound they belong to.

Columns and labels:
LNCaP cells = assay: Specific cell surface binding and internalization of 68Ga-labeled compounds; type: cell-based
Experimental: LNCaP cells (CRL-1740; ATCC; PSMA-positive) and PC-3 cells (CRL-1435; ATCC; PSMA-negative) were cultured in RPMI medium (Thermo Fisher Scientific, Waltham, MA, USA) supplemented with 10% fetal calf serum and 2 mmol/L L-glutamine (all from (Thermo Fisher Scientific, Waltham, MA, USA) ) at 37 °C in humidified air with 5% CO2. Cells were harvested using trypsin-ethylenediaminetetraacetic acid (trypsin-EDTA; 0.25% trypsin, 0.02% EDTA, Invitrogen, Waltham, MA, USA). Cell line authentication was regularly performed. Binding affinities and internalization profiles of the ^68Ga-labeled compounds were determined in competitive cell binding assays and internalization experiments as described previously.

[1] = test system: LNCaP-tumor bearing BALB/c nu/nu mice; assay: Biodistribution (organ distribution) in tumor xenograft model; type: in vivo; settings: 0.06 nmol; for Organ distribution Blood / Organ distribution Brain / Organ distribution Heart / Organ distribution Intestine / Organ distribution Kidney / Organ distribution Liver / Organ distribution Lung / Organ distribution Muscle / Organ distribution Spleen / Organ distribution Tumor: n=3
Experimental: (§1) Biodistribution and proof-of-concept imaging studies were performed in an experimental tumor xenograft model. A total of 5 × 10^6 cells of LNCaP (in 50% Matrigel; Becton Dickinson, Franklin Lakes, NJ, USA) were subcutaneously inoculated into the flank of 7- to 8-week-old male BALB/c nu/nu mice (Charles River, Wilmington, MA, USA/Janvier Labs, Le Genest-Saint-Isle, France).
For biodistribution studies, 60 pmol of ^68Ga-labeled PSMA-927 were injected into the tail vein (1–3 MBq, n = 3). The animals were sacrificed at 1 and at 2 h p.i., and organs of interest were dissected, blotted dry, and weighed. Finally, the radioactivity was measured using a gamma counter and calculated as % ID/g.

[2] = test system: LNCaP xenograft mouse model; assay: Small-animal PET/MRI proof-of-concept, PSMA-positive xenograft; type: in vivo, mice
Experimental: as §1
(§2) For the proof-of-concept imaging study, 0.5 nmol of the ^68Ga-labeled compound in 0.9% NaCl (pH 7) were injected into the tail vein under anesthesia (2% isoflurane, n = 1). PET/MRI was performed with a 3T PET/MRI scanner (Bruker, Ettlingen, Germany). For MR imaging, a nontriggered localizer followed by a T1-weighted 3D scan was applied. For PET imaging, a dynamic scan for 60 min and a static scan (20 min) at 2 h p.i. was recorded. Image reconstruction was done with ParaVision software (dynamic scan: MLEM 0.5 mm algorithm, 12 iterations; static scan: OSEM 0.25 mm algorithm, 1 iteration), and data analysis was conducted in PMOD (version 3.7) with data converted to SUV images. After PET/MRI, the mice were sacrificed, and optical imaging of the subcutaneous tumor and organs of interest was performed with the Odyssey CLx system (LI-COR Biosciences, excitation wavelength 800 nm).

PC-3 tumor xenografts = assay: Small-animal PET/MRI proof-of-concept, PSMA-negative xenograft; type: in vivo, mice; settings: 0.5 nmol, PSMA-negative PC-3 xenograft, n = 1
Experimental: as §2

human serum albumin = test system: human serum albumin; design: method as in PMID 942422, PMID 11325049; settings: cited from earlier work

Tumor-to-Organ ratio Blood ([1]; 1 h p.i.): 3.69 ± 0.60
Tumor-to-Organ ratio Brain ([1]; 1 h p.i.): 57.84 ± 9.25
Tumor-to-Organ ratio Heart ([1]; 1 h p.i.): 8.57 ± 2.07
Tumor-to-Organ ratio Intestine ([1]; 1 h p.i.): 10.37 ± 2.47
Tumor-to-Organ ratio Kidney ([1]; 1 h p.i.): 0.06 ± 0.01
Tumor-to-Organ ratio Liver ([1]; 1 h p.i.): 4.51 ± 0.84
Tumor-to-Organ ratio Lung ([1]; 1 h p.i.): 2.84 ± 0.37
Tumor-to-Organ ratio Muscle ([1]; 1 h p.i.): 12.23 ± 1.39
Tumor-to-Organ ratio Spleen ([1]; 1 h p.i.): 1.76 ± 0.71
Organ distribution Blood ([1]; 1 h p.i.): 1.14 ± 0.14 %ID/g
Organ distribution Brain ([1]; 1 h p.i.): 0.07 ± 0.01 %ID/g
Organ distribution Heart ([1]; 1 h p.i.): 0.51 ± 0.10 %ID/g
Organ distribution Intestine ([1]; 1 h p.i.): 0.43 ± 0.12 %ID/g
Organ distribution Kidney ([1]; 1 h p.i.): 65.64 ± 6.60 %ID/g
Organ distribution Liver ([1]; 1 h p.i.): 0.95 ± 0.15 %ID/g
Organ distribution Lung ([1]; 1 h p.i.): 1.47 ± 0.14 %ID/g
Organ distribution Muscle ([1]; 1 h p.i.): 0.34 ± 0.03 %ID/g
Organ distribution Spleen ([1]; 1 h p.i.): 2.82 ± 1.19 %ID/g
Organ distribution Tumor ([1]; 1 h p.i.): 4.13 ± 0.15 %ID/g
Tumor-to-Organ ratio Blood ([1]; 2 h p.i.): 7.58 ± 1.65
Tumor-to-Organ ratio Brain ([1]; 2 h p.i.): 29.37 ± 13.17
Tumor-to-Organ ratio Heart ([1]; 2 h p.i.): 14.79 ± 4.40
Tumor-to-Organ ratio Intestine ([1]; 2 h p.i.): 11.92 ± 5.17
Tumor-to-Organ ratio Kidney ([1]; 2 h p.i.): 0.13 ± 0.06
Tumor-to-Organ ratio Liver ([1]; 2 h p.i.): 7.80 ± 3.09
Tumor-to-Organ ratio Lung ([1]; 2 h p.i.): 6.11 ± 2.36
Tumor-to-Organ ratio Muscle ([1]; 2 h p.i.): 11.55 ± 5.94
Tumor-to-Organ ratio Spleen ([1]; 2 h p.i.): 3.60 ± 1.86
Organ distribution Blood ([1]; 2 h p.i.): 0.82 ± 0.23 %ID/g
Organ distribution Brain ([1]; 2 h p.i.): 0.24 ± 0.11 %ID/g
Organ distribution Heart ([1]; 2 h p.i.): 0.43 ± 0.14 %ID/g
Organ distribution Intestine ([1]; 2 h p.i.): 0.59 ± 0.26 %ID/g
Organ distribution Kidney ([1]; 2 h p.i.): 57.47 ± 23.83 %ID/g
Organ distribution Liver ([1]; 2 h p.i.): 0.87 ± 0.34 %ID/g
Organ distribution Lung ([1]; 2 h p.i.): 1.11 ± 0.42 %ID/g
Organ distribution Muscle ([1]; 2 h p.i.): 0.66 ± 0.30 %ID/g
Organ distribution Spleen ([1]; 2 h p.i.): 2.08 ± 0.90 %ID/g
Organ distribution Tumor ([1]; 2 h p.i.): 5.85 ± 0.91 %ID/g
tumor uptake in PET/MRI ([2]; 0.5 nmol, PSMA-positive LNCaP xenograft, n = 1): strong and specific tumor uptake
tumor uptake in PET/MRI (PC-3 tumor xenografts): lack of measurable uptake
Structure (SMILES): CC1(C)C(=CC=C2CCCC(C=CC3=[N+](CCCCCC(=O)NCCCCC(NC(=O)CN4CCN(CC(=O)[O-])CCN(CC(=O)[O-])CCN(CC(=O)[O-])CC4)C(=O)NCC4CCC(C(=O)NC(Cc5ccc6ccccc6c5)C(=O)NCCCCC(NC(=O)NC(CCC(=O)O)C(=O)O)C(=O)O)CC4)c4ccc(S(=O)(=O)[O-])cc4C3(C)C)=C2Oc2ccc(S(=O)(=O)O)cc2)N(CCCCS(=O)(=O)O)c2ccc(S(=O)(=O)O)cc21.[68Ga+3] (stereo not drawn) [[^68Ga]Ga-PSMA-927, 68Ga-Glu-urea-Lys-2-Nal-Chx-Lys(IRDye800CW)-DOTA]
specific cell surface binding (LNCaP cells): 25.51 ± 9.73 %ID/10^5 LNCaP cells
specific internalization rate (LNCaP cells): 27.64 ± 12.80 %ID/10^5 LNCaP cells
pharmacokinetic profile (clearance) ([2]; time activity curves, PET/MRI): rapid clearance from non-malignant tissue (heart, liver, muscle) via the renal pathway

Structure (SMILES): CC1(C)C(/C=C/C=C/C=C/C=C2\N(CCCCS(=O)(=O)O)c3ccc4ccccc4c3C2(C)C)=[N+](CCCCS(=O)(=O)[O-])c2ccc3ccccc3c21 [indocyanine green]
human serum albumin binding (human serum albumin): prone to human serum albumin binding
